How the values were obtained:
Format in all cases: in vivo
Nilaparvata lugens = Nilaparvata lugens spray test; conditions: Nilaparvata lugens, in Oryza sativa, 96 h
Description: Nilaparvata lugens—Spray Test
(§1) To produce a suitable preparation of active compound, 1 part by weight of active compound is mixed with the stated amount of solvents and is diluted with water, containing an emulsifier concentration of 1000 ppm, to the desired concentration. Further test concentrations are prepared by dilution with emulsifier containing water.
Rice plants (Oryza sativa) are sprayed with a preparation of the active ingredient of the desired concentration and the plants are infested with the brown planthopper (Nilaparvata lugens).
After 4 days mortality in % is determined. 100% means all planthoppers have been killed and 0% means none of the planthoppers have been killed.

Boophilus microplus = Boophilus microplus injection test; conditions: 20 μg/animal, egg deposition after 7 days; for pest or weed control at 0.02 mg: Rhipicephalus microplus, 168 h, read-out: efficacy (infertile eggs)
Description: Boophilus microplus—Injection Test
(§2) Solvent: dimethyl sulfoxide
To produce a suitable preparation of active compound, 10 mg of active compound are dissolved in 0.5 ml solvent, and the concentrate is diluted with solvent to the desired concentration.
Five adult engorged female ticks (Boophilus microplus) are injected with 1 μl compound solution into the abdomen. The ticks are transferred into replica plates and incubated in a climate chamber.
After 7 days egg deposition of fertile eggs is monitored. Eggs where fertility is not visible are stored in a climate chamber till hatching after about 42 days. An efficacy of 100% means all eggs are infertile; 0% means all eggs are fertile.

[1] = tested on: Aedes aegypti strain MONHEIM; test: Aedes aegypti test (AEDSAE surface treatment & contact assay); conditions: 24 hours after contact, read-out: efficacy (mortality); for mortality at 20 mg/m2: surface concentration 20 mg/m^2, 30 minutes exposure; for mortality at 4 mg/m2: surface concentration 4 mg/m^2, 30 minutes exposure
Description: Aedes aegypti Test (AEDSAE Surface Treatment & Contact Assay)
(§3) Solvent: Aceton+2000 ppm rapeseed oil methyl ester (RME)
(§4) In order to produce a sufficient, active ingredient containing solution it is necessary to solve the test-compound in the solvent-mix (Acetone at 2 mg/ml/RME 2000 ppm). This solution is pipetted onto a glazed tile and after evaporation of the Acetone, adult mosquitoes of the species Aedes aegypti strain MONHEIM are placed onto the dried surface. The exposure time is 30 minutes.
(§5) Mortality in percent (%) is determined 24 hours after contact to the treated surface. 100% mortality means that all test-insects are dead, whereas 0% means that not a single insect died.

Myzus persicae = Myzus persicae oral test; conditions: 120 h
Description: To produce a suitable preparation of active compound, 1 part by weight of active compound is mixed with the stated amount of solvent, and the concentrate is diluted with water to the desired concentration.
50 μl compound solution is filled in microtiter plates and 150 μl IPL41 insect medium (33%+15% sugar) is added to obtain a total volume of 200 μl per well. Afterwards the plates are sealed with parafilm through which a mixed population of the green peach aphid (Myzus persicae) can suck on the compound preparation.
After 5 days mortality in % is determined. 100% means all aphids have been killed and 0% means none of the aphids have been killed.

Diabrotica balteata = Diabrotica balteata spray test; conditions: 160 μg/well, wheat seeds, after 7 days; for pest or weed control at 160 µg/disc, 160 µg/well: Diabrotica balteata, 168 h, read-out: efficacy (seedlings grown)
Description: Diabrotica balteata—Spray Test
as §1, with “solvent,” for “solvents”, “and the concentrate” for “and”
Soaked wheat seeds (Triticum aestivum) are placed in a multiple well plate filled with agar and some water and are incubated for 1 day to germinate (5 seeds per well). The germinated wheat seeds are sprayed with a test solution containing the desired concentration of the active ingredient. Afterwards each unit is infected with 10-20 larvae of the banded cucumber beetle (Diabrotica balteata).
After 7 days efficacy in % is determined. 100% means all the seedlings have grown up like in the untreated, uninfected control; 0% means none of the seedlings have grown.

Ctenocephalides felis [2] = test: Ctenocephalides felis oral test; conditions: Ctenocephalides felis, in Bos taurus, po, 48 h
Description: Ctenocephalides felis—Oral Test
as §2
To produce a suitable preparation of active compound, 10 mg of active compound are dissolved in 0.5 ml solvent, and the concentrate is diluted with cattle blood to the desired concentration.
Approximately 20 adult unfed cat fleas (Ctenocephalides felis) are placed in flea chambers. The blood chamber, sealed with parafilm on the bottom, are filled with cattle blood supplied with compound solution and placed on the gauze covered top of the flea chamber, so that the fleas are able to suck the blood. The blood chamber is heated to 37° C. whereas the flea chamber is kept at room temperature.
After 2 days mortality in % is determined. 100% means all the fleas have been killed; 0% means none of the fleas have been killed.

Spodoptera frugiperda = Spodoptera frugiperda spray test; conditions: in Zea mays, 168 h
Description: Spodoptera frugiperda—Spray Test
as §1
Maize (Zea mays) leaf sections are sprayed with a preparation of the active ingredient of the desired concentration. Once dry, the leaf sections are infested with fall armyworm larvae (Spodoptera frugiperda).
After 7 days mortality in % is determined. 100% means all caterpillars have been killed and 0% means none of the caterpillars have been killed.

Nezara viridula = Nezara viridula spray test; conditions: in Hordeum vulgare, 96 h
Description: Nezara viridula—Spray Test
as §1, with “solvent,” for “solvents”, “and the concentrate” for “and”
Barley plants (Hordeum vulgare) infested with larvae of the southern green stink bug (Nezara viridula) are sprayed with a test solution containing the desired concentration of the active ingredient.
After 4 days mortality in % is determined. 100% means all the stink bugs have been killed; 0% means none of the stink bugs have been killed.

Ctenocephalides felis [3] = test: Ctenocephalides felis in-vitro contact test adult cat flea; conditions: 5 μg/cm^2 (=500 g/ha), after 48 hours; for pest or weed control at 5 µg/cm2, 5 µg/cm2: Ctenocephalides felis, read-out: efficacy (fleas dead or moribund)
Description: Ctenocephalides felis—In-Vitro Contact Test Adult Cat Flea
9 mg compound is solved in 1 ml acetone and diluted with acetone to the desired concentration. 250 μl of the test solution is filled in 25 ml glass test tubes and homogeneously distributed on the inner walls by rotation and tilting on a shaking device (2 h at 30 rpm). With a compound concentration of 900 ppm, an inner surface of 44.7 cm^2 and a homogeneous distribution, a dose of 5 μg/cm^2 is achieved.
After the solvent has evaporated, each test tube is filled with 5-10 adult cat fleas (Ctenocephalides felis), closed with a perforated lid and incubated in a lying position at room temperature and relative humidity. After 48 hours efficacy is determined. The fleas are patted on the ground of the tubes and are incubated on a heating plate at 45-50° C. for at most 5 minutes. Immotile or uncoordinated moving fleas, which are not able to escape the heat by climbing upwards, are marked as dead or moribund.
An efficacy of 100% means all fleas are dead or moribund; 0% means no fleas are dead or moribund.

[4] = tested on: Culex quinquefasciatus strain P00; test: Culex quinquefasciatus test (CULXFA surface treatment & contact assay); conditions: 24 hours after contact, read-out: efficacy (mortality); for mortality at 4 mg/m2: surface concentration 4 mg/m^2, 30 minutes exposure; for mortality at 20 mg/m2: surface concentration 20 mg/m^2, 30 minutes exposure
Description: Culex quinquefasciatus Test (CULXFA Surface Treatment & Contact Assay)
as §3
as §4, with “Culex quinquefasciatus” for “Aedes aegypti”, “P00” for “MONHEIM”
as §5

## CC(c1ncnn1-c1ncccn1)N(CC1CC1)C(=O)c1c(F)cccc1F (stereo not shown) [Example I-018]
Nilaparvata lugens
  mortality at 500 g/ha: 100%

## CC(NC(=O)c1cc(Cl)cc(-n2cccn2)c1)c1ncnn1-c1ncccn1 (stereo not shown) [Example I-048]
Boophilus microplus
  pest or weed control at 0.02 mg: 100%
[1]
  mortality at 20 mg/m2: 90 to 100%
Myzus persicae
  mortality at 4 ppm: 100%
Diabrotica balteata
  pest or weed control at 160 µg/disc, 160 µg/well: 100%
Ctenocephalides felis [2]
  mortality at 100 ppm: 100%

## CC(C)S(=O)(=O)c1cc(Cl)cc(C(=O)N[C@@H](C)c2ncnn2-c2ncccn2)c1 [Example I-051, 3-chloro-5-(isopropylsulfonyl)-N-{(1S)-1-[1-(pyrimidin-2-yl)-1H-1,2,4-triazol-5-yl]ethyl}benzamide]
Spodoptera frugiperda
  mortality at 500 g/ha: 100%
Boophilus microplus
  pest or weed control at 0.02 mg: 100%
Myzus persicae
  mortality at 4 ppm: 100%
Diabrotica balteata
  pest or weed control at 160 µg/disc, 160 µg/well: 100%
Nezara viridula
  mortality at 500 g/ha: 100%
Ctenocephalides felis [3]
  pest or weed control at 5 µg/cm2, 5 µg/cm2: 80%
Ctenocephalides felis [2]
  mortality at 100 ppm: 100%

## C[C@H](NC(=O)c1cc(C(F)(F)F)nn1-c1ccc(F)cc1)c1ncnn1-c1ncccn1 [Example I-052, 1-(4-fluorophenyl)-N-{(1S)-1-[1-(pyrimidin-2-yl)-1H-1,2,4-triazol-5-yl]ethyl}-3-(trifluoromethyl)-1H-pyrazole-5-carboxamide]
Boophilus microplus
  pest or weed control at 0.02 mg: 100%
Ctenocephalides felis [2]
  mortality at 100 ppm: 100%

## COC[C@H](NC(=O)c1cc(Cl)cc(S(C)(=O)=O)c1)c1ncnn1-c1ncccn1 [Example I-059]
Nilaparvata lugens
  mortality at 500 g/ha: 100%
Ctenocephalides felis [3]
  pest or weed control at 5 µg/cm2, 5 µg/cm2: 80%
Ctenocephalides felis [2]
  mortality at 100 ppm: 100%

## C[C@H](NC(=O)c1cc(Cl)cc(S(C)(=O)=O)c1)c1ncnn1-c1ccc(OC(F)F)cn1 [Example I-063]
Spodoptera frugiperda
  mortality at 500 g/ha: 100%
[4]
  mortality at 4 mg/m2: 80 to 100%
  mortality at 20 mg/m2: 80 to 100%
[1]
  mortality at 4 mg/m2: 80 to 100%
  mortality at 20 mg/m2: 90 to 100%
Myzus persicae
  mortality at 4 ppm: 100%
Diabrotica balteata
  pest or weed control at 160 µg/disc, 160 µg/well: 100%
Nezara viridula
  mortality at 500 g/ha: 100%

## C[C@H](NC(=O)c1cc(Cl)cc(S(C)(=O)=O)c1)c1ncnn1-c1ccc(SC(F)(F)F)cn1 [Example I-064]
Spodoptera frugiperda
  mortality at 500 g/ha: 100%
Diabrotica balteata
  pest or weed control at 160 µg/disc, 160 µg/well: 100%

## CC(NC(=O)c1cc(Cl)cc(S(=O)(=O)C(F)(F)F)c1)c1ncnn1-c1ncc(Cl)cn1 (stereo not shown) [Example I-069]
Boophilus microplus
  efficacy (infertile eggs): 100%
Diabrotica balteata
  efficacy (seedlings grown): 100%
Ctenocephalides felis [3]
  efficacy (fleas dead or moribund): 100%

## CC(NC(=O)c1cc(Cl)cc(S(=O)(=O)C(F)(F)F)c1)c1ncnn1-c1ccc(C(F)(F)F)cn1 (stereo not shown) [Example I-072]
Boophilus microplus
  efficacy (infertile eggs): 100%
Diabrotica balteata
  efficacy (seedlings grown): 100%

## CC(NC(=O)c1cc(Cl)cc(S(=O)(=O)C(F)(F)F)c1)c1ncnn1-c1ccc(Cl)cn1 (stereo not shown) [Example I-073]
Boophilus microplus
  efficacy (infertile eggs): 100%
Diabrotica balteata
  efficacy (seedlings grown): 100%
Ctenocephalides felis [3]
  efficacy (fleas dead or moribund): 90%

## CC(NC(=O)c1cc(Cl)cc(S(=O)(=O)C(F)(F)F)c1)c1ncnn1-c1cc(C#N)ccn1 (stereo not shown) [Example I-075]
Boophilus microplus
  efficacy (infertile eggs): 100%
Diabrotica balteata
  efficacy (seedlings grown): 100%
Ctenocephalides felis [3]
  efficacy (fleas dead or moribund): 90%

## C[C@@H](NC(=O)c1cc(Cl)cc(S(=O)(=O)C(F)(F)F)c1)c1ncnn1-c1ccnc(Cl)c1 [Example I-076]
Boophilus microplus
  pest or weed control at 0.02 mg: 100%
Ctenocephalides felis [2]
  mortality at 100 ppm: 100%

## C[C@@H](NC(=O)c1cc(Cl)cc(S(=O)(=O)C(F)(F)F)c1)c1ncnn1-c1nccs1 [Example I-077]
Spodoptera frugiperda
  mortality at 500 g/ha: 100%
Boophilus microplus
  pest or weed control at 0.02 mg: 100%
[1]
  mortality at 20 mg/m2: 90 to 100%
Diabrotica balteata
  pest or weed control at 160 µg/disc, 160 µg/well: 100%
Ctenocephalides felis [2]
  mortality at 100 ppm: 90%

## CC(NC(=O)c1cc(Cl)cc(S(=O)(=O)C(C)(C)C)c1)c1ncnn1-c1ncccn1 (stereo not shown) [Example I-080]
Boophilus microplus
  efficacy (infertile eggs): 80%

## C[C@@H](NC(=O)c1cc(Cl)cc(S(C)(=O)=O)c1)c1ncnn1-c1ccc(C(F)(F)F)cn1 [Example I-089]
Spodoptera frugiperda
  mortality at 500 g/ha: 100%
[4]
  mortality at 4 mg/m2: 80 to 100%
  mortality at 20 mg/m2: 80 to 100%
[1]
  mortality at 4 mg/m2: 80 to 100%
  mortality at 20 mg/m2: 90 to 100%
Diabrotica balteata
  pest or weed control at 160 µg/disc, 160 µg/well: 100%
Nezara viridula
  mortality at 500 g/ha: 100%
Ctenocephalides felis [3]
  pest or weed control at 5 µg/cm2, 5 µg/cm2: 100%
Ctenocephalides felis [2]
  mortality at 100 ppm: 100%

## CC(NC(=O)c1cc(Cl)cc(-n2ccc(C(F)(F)F)n2)c1)c1ncnn1-c1ncccn1 (stereo not shown) [Example I-094]
Spodoptera frugiperda
  mortality at 500 g/ha: 83%
Diabrotica balteata
  pest or weed control at 160 µg/disc, 160 µg/well: 100%

## C[C@@H](NC(=O)c1cc(Cl)cc(S(C)(=O)=O)c1)c1nc(C(F)(F)F)nn1-c1ccc(C#N)cn1 [Example I-110]
Spodoptera frugiperda
  mortality at 500 g/ha: 100%
Nezara viridula
  mortality at 500 g/ha: 100%

## C[C@@H](NC(=O)c1cncc(-c2ccc(F)cc2)c1)c1ncnn1-c1ncccn1 [Example I-111]
Nilaparvata lugens
  mortality at 500 g/ha: 100%

## C[C@@H](NC(=O)c1cc(F)cc(C2CC2)c1)c1ncnn1-c1ccc(C#N)cn1 [Example I-113]
Spodoptera frugiperda
  mortality at 500 g/ha: 100%
Diabrotica balteata
  pest or weed control at 160 µg/disc, 160 µg/well: 100%
Nezara viridula
  mortality at 500 g/ha: 90%

## C[C@H](NC(=S)c1cc(F)cc(C2CC2)c1)c1ncnn1-c1ccc(C#N)cn1 [Example I-120, N-{(1S)-1-[1-(5-cyanopyridin-2-yl)-1H-1,2,4-triazol-5-yl]ethyl}-3-cyclopropyl-5-fluorobenzenecarbothioamide]
Spodoptera frugiperda
  mortality at 500 g/ha: 100%
Nilaparvata lugens
  mortality at 500 g/ha: 100%
Diabrotica balteata
  pest or weed control at 160 µg/disc, 160 µg/well: 100%
Nezara viridula
  mortality at 500 g/ha: 100%

## C[C@@H](NC(=O)c1cc(-c2ccc(F)cc2)cc(C(F)(F)F)c1)c1ncnn1-c1ccc(C#N)cn1 [Example I-123]
Spodoptera frugiperda
  mortality at 500 g/ha: 100%
Diabrotica balteata
  pest or weed control at 160 µg/disc, 160 µg/well: 100%

Reference: US12187705B2, “Heteroaryl-triazole and heteroaryl-tetrazole compounds as pesticides” (Bayer Aktiengesellschaft, priority 2018, dated 2025)
